Converted amounts (≈) assume the structure as drawn. The source made the active and inactive calls. No cut-off for these calls is given here.
Tests used:
HCT-116 = assay: Antiproliferative activity against human HCT-116 cells assessed as inhibition of cell growth incubated for 24 hrs by CCK-8 assay; assay type: functional, cell-based; conditions: HCT-116, 24 h
KYSE-150 cell line = assay: Antiproliferative activity against human KYSE-150 cell line assessed as inhibition of cell growth incubated for 24 hrs by CCK-8 assay; assay type: functional, cell-based; conditions: KYSE-150, 24 h
U-87 MG [1] = assay: Induction of cell cycle arrest in human U87 cells assessed as increase in number of cells at S phase at 80 uM incubated for 24 hrs by RNase/PI staining based flow cytometry; assay type: functional; conditions: U-87MG ATCC
MCF7 = assay: Antiproliferative activity against human MCF7 cells assessed as inhibition of cell growth incubated for 24 hrs by CCK-8 assay; assay type: functional, cell-based; conditions: MCF7, 24 h
U-87 MG [2] = assay: Inhibition of cell migration in human U87 cells at 80 uM incubated for 48 hrs by scratch assay; assay type: functional, cell-based; conditions: U-87MG ATCC
U-87 MG [3] = assay: Induction of cell cycle arrest in human U87 cells assessed as decrease in number of cells at G2 phase at 80 uM incubated for 24 hrs by RNase/PI staining based flow cytometry; assay type: functional; conditions: U-87MG ATCC
U-87 MG [4] = assay: Antiproliferative activity against human U87 cells assessed as inhibition of cell growth incubated for 24 hrs by CCK-8 assay; assay type: functional, cell-based, U-87MG ATCC
U-87 MG [5] = assay: Induction of cell cycle arrest in human U87 cells assessed as decrease in number of cells at G1 phase at 80 uM incubated for 24 hrs by RNase/PI staining based flow cytometry; assay type: functional; conditions: U-87MG ATCC
U-87 MG [6] = assay: Induction of apoptosis in human U87 cells assessed as increase in number of apoptotic cells at 80 uM incubated for 24 hrs by Annexin V-FITC/PI staining based flow cytometry; assay type: functional, cell-based; conditions: U-87MG ATCC
U-87 MG [7] = assay: Induction of cell cycle arrest in human U87 cells assessed as decrease in number of cells at S phase at 80 uM incubated for 24 hrs by RNase/PI staining based flow cytometry; assay type: functional; conditions: U-87MG ATCC
U-87 MG [8] = assay: Induction of cell cycle arrest in human U87 cells assessed as increase in number of cells at G2 phase at 80 uM incubated for 24 hrs by RNase/PI staining based flow cytometry; assay type: functional; conditions: U-87MG ATCC
[9] = Metabolic stability in liver microsomes (unknown origin) assessed as compound remaining incubated for 60 mins by LC-MS/MS analysis; assay type: ADME, Microsome; conditions: read-out: Stability
[10] = Apparent permeability across apical to basolateral side in human Caco-2 cells at 2 uM incubated for 2 hrs by LC-MS/MS analysis; assay type: ADME, cell-based; conditions: for Papp: caco-2, 2 h, 2 µM; for Papp A→B at 2 h, 2 µM: Caco-2
[11] = Metabolic stability in liver microsomes (unknown origin) assessed as half life incubated for 60 mins by LC-MS/MS analysis; assay type: ADME, Microsome
[12] = Apparent permeability across basolateral to apical side in human Caco-2 cells at 2 uM incubated for 2 hrs by LC-MS/MS analysis; assay type: ADME, cell-based; conditions: for Papp: caco-2, 2 h, 2 µM; for Papp B→A at 2 h, 2 µM: Caco-2
U-87 MG [13] = assay: Induction of apoptosis in human U87 cells at 80 uM incubated for 24 hrs by Annexin V-FITC/PI staining based flow cytometry; assay type: functional
[14] = Kinetic solubility in PBS at pH 7.4 incubated under shaking condition for 24 hrs by LC-MS/MS analysis; assay type: physicochemical; conditions: read-out: Kinetic_solubility
[15] = Efflux ratio of apparent permeability from basolateral to apical side over apical to basolateral side in human Caco-2 cells at 2 uM incubated for 2 hr by LC-MS/MS analysis; assay type: ADME, cell-based; conditions: for Ratio: caco-2, 2 h, 2 µM; for efflux ratio at 2 h, 2 µM: Caco-2
U-87 MG [16] = assay: Induction of cell cycle arrest in human U87 cells assessed as increase in number of cells at G1 phase at 80 uM incubated for 24 hrs by RNase/PI staining based flow cytometry; assay type: functional; conditions: U-87MG ATCC

Compound	IC50 (HCT-116) [mM]	IC50 (KYSE-150 cell line) [mM]	Activity (U-87 MG [1])	IC50 (MCF7) [mM]	inhibition (U-87 MG [2])	Activity (U-87 MG [3])	IC50 (U-87 MG [4]) [mM]	Activity (U-87 MG [5])	Activity (U-87 MG [6])	remaining at 1 h [9] [%]	half-life [11] [min]	Activity (U-87 MG [13]; U-87MG ATCC)	solubility kinetic at 24 h [14] [µM]	Papp A→B at 2 h, 2 µM [10] [×10⁻⁶ cm/s]	Papp B→A at 2 h, 2 µM [12] [×10⁻⁶ cm/s]	efflux ratio at 2 h, 2 µM [15]	also measured
CC(C)[C@H]1CC[C@H](C)C[C@@H]1O [RACEMENTHOL]	1.14	3.65	inactive	3.68	Active	inactive	0.679	inactive	inactive								
CC(C)[C@H]1CC[C@H](C)C[C@H]1N	0.63	> 3.28		> 1.26	Active		0.317		Active; Significantly Increased Activity Observed	81.8	> 145	Active	0.625 (≈ 0.0971 µg/mL)				Activity (U-87 MG [7]): Active; Activity (U-87 MG [8]): Active; Papp [10]: 23.47 10^-6 cm/s; Papp [12]: 22.23 10^-6 cm/s; Ratio [15]: 0.55; Activity (U-87 MG [16]): Active
CC(C)[C@H]1CC[C@@H](C)C[C@@H]1N	> 0.318	> 6.45		> 6.45	Active		1.74		Active; Significantly Increased Activity Observed	75.4	> 145	Active	150 (≈ 23.3 µg/mL)				Activity (U-87 MG [7]): Active; Activity (U-87 MG [8]): Active; Papp [10]: 40.16 10^-6 cm/s; Papp [12]: 23.22 10^-6 cm/s; Ratio [15]: 0.5; Activity (U-87 MG [16]): Active
CC(C)[C@H]1CC[C@H](C)C[C@H]1N1C(=O)c2ccccc2C1=O	0.0572	> 0.972		1.49	Active		0.0653		Active; Significantly Increased Activity Observed	80.4	> 145	Active	0.03 (≈ 0.00856 µg/mL)	25.7	12.6	0.52	Activity (U-87 MG [7]): Active; Activity (U-87 MG [8]): Active; Activity (U-87 MG [16]): Active
C[C@]12CC[C@H]3[C@@H](CCC4=CC(=O)CC[C@@]43C)[C@@H]1CC[C@@H]2O [TESTOSTERONE]										91							
C[C@H]1O[C@@H](O[C@H]2[C@@H](O)C[C@H](O[C@H]3[C@@H](O)C[C@H](O[C@H]4CC[C@@]5(C)[C@H](CC[C@@H]6[C@@H]5C[C@@H](O)[C@]5(C)[C@@H](C7=CC(=O)OC7)CC[C@]65O)C4)O[C@@H]3C)O[C@@H]2C)C[C@H](O)[C@@H]1O [DIGOXIN]														0.15	18.6	127	
CC(C)[C@@H]1CC[C@@H](C)C[C@H]1O [LEVOMENTHOL]	0.771	0.784	inactive	1.25	Active	inactive	0.198	inactive	inactive								
O=C(O)Cc1ccccc1Nc1c(Cl)cccc1Cl [DICLOFENAC]										97.8	5.32						
CC(C)[C@H]1CC[C@@H](C)C[C@H]1N	0.848	4.24	Active	3.51	Active	Active	0.224	Active	Active; Significantly Increased Activity Observed	79.4	> 145		147 (≈ 22.8 µg/mL)	41.8	24.7	0.59	Activity (U-87 MG [13]): 90%
COCCc1ccc(OCC(O)CNC(C)C)cc1 (centres undefined) [METOPROLOL]														25.1			
CC(C)[C@@H]1CC[C@@H](C)C[C@H]1OC(=O)c1ccc([N+](=O)[O-])cc1	0.649	> 3.13	inactive	0.907	Active	inactive	0.0927	inactive	Active; Significantly Increased Activity Observed	32.6	25.2	Active	0.61 (≈ 0.186 µg/mL)	24	11.2	0.48	
CC(C)(C)NCC(O)COc1cccc2c1CC(O)C(O)C2 (centres undefined) [NADOLOL]														0.04			
CC(C)[C@@H]1CC[C@@H](C)C[C@@H]1OC(=O)c1ccc([N+](=O)[O-])cc1	0.787	3.51	inactive	2.67	Active	inactive	0.109	inactive	Active; Significantly Increased Activity Observed	33.3	25	Active	0.031 (≈ 0.00947 µg/mL)	24.4	12.1	0.51	
CC(C)[C@H]1CC[C@H](C)C[C@@H]1N	6.45	6.45	inactive	6.45	Active	inactive	3.21	inactive	Active; Significantly Increased Activity Observed	79.4	> 145		146 (≈ 22.6 µg/mL)	46	23.5	0.53	Activity (U-87 MG [13]): 90%
Cn1nnc2c(C(N)=O)ncn2c1=O [TEMOZOLOMIDE]							1.5										

— ChEMBL document CHEMBL6078673, “Synthesis and anti-tumor activity of menthylamine derivatives: Focusing on the potent inhibitory effect of compound W8 on glioma growth” (Bioorg Med Chem, 2025)
